Laboratory results from PMC11032351, “Epigenetic modulation through BET bromodomain inhibitors as a novel therapeutic strategy for progranulin-deficient frontotemporal dementia” (Scientific Reports, 2024).

Tested on: PGRN protein levels
Experiment: PGRN quantification (Jess) in human NPCs
Assay type: cell-based
Settings: for increase in PGRN protein levels: 1 µM for 24 h; for increase in PGRN: lysed immediately
Description: PGRN capillary gel electrophoresis experiments were performed using Jess (Bio-Techne) and data were processed and analyzed using Compass for Simple Western software (version 6.0). Runs were conducted using EZ Standard Pack 1 12-230 kDa (Bio-Techne PS-ST01EZ-8), 12-230 kDa pre-filled plates (PS-PP03), 12-230 kDa separation module (SMW004), anti-rabbit HRP detection ([…]-001), and total protein detection modules (DM-TP01, biotin labeling reagent 042-973) according to the manufacturer's instructions, and with anti-PGRN primary (Abcam ab208777) diluted 1:50 in milk-free antibody dilution buffer (043-524). […] All intensity quantifications are normalized to the total protein assay quantification unless otherwise indicated. NPCs were cultured normally in 6-well plates as described previously. Upon reaching confluency, DMSO or MLN-4924 (Cayman #15,217, 10 mM stock in DMSO) were diluted 1:5000 into NPC media with growth factors. 1 mL of media was aspirated from the cell cultures, and 1 mL of MLN-4924 or DMSO dilutions were then added to respective wells (final well concentration: 1 μM MLN-4924 in select wells, 0.01% DMSO for all wells). Plates returned to the incubator. […] Plates returned to the incubator. After 4 h, to the indicated wells is directly added 1 μL 2 mM mivebresib (MedChem Express HY-100015) in DMSO for a final concentration of 1 μM, or 1 μL DMSO. All plates were returned to the incubator overnight. The next day, 24 h from the addition of mivebresib, plates were removed from the incubator, and all wells were washed with 2 mL PBS, and then lysed in 300 μL M-PER lysis buffer with protease inhibitors. Cells were allowed to lyse for 15 min at 4 °C with light nutation, and then lysate was transferred to a 1.5-mL Eppendorf tube which was then spun down at 20 k rcf at 4 °C for 10 min. 200 μL of supernatant was then transferred to a fresh, labeled Eppendorf rube, which was then stored at - 20 °C prior to further analysis. Sample concentration was quantified using the BCA assay as described above, and normalized to 250 μg/mL in M-PER lysis buffer prior to PGRN quantification using the Jess. NPCs were cultured normally as described previously. 6-well plates were seeded at 300,000 cells/well in 2 mL of NPC media with EGF, bFGF, and heparin as described above. Cells were allowed to grow to confluency for three nights at 37 °C with 5% CO2. […] These solutions were then diluted 1:10 in NPC media with growth factors containing 0.2% DMSO to make 100 nM compound solutions. Treatment wells were washed with 2 mL PBS prior to addition of 2 mL NPC media with growth factors containing compound (or DMSO only) at indicated concentrations (3 replicates per condition, 6 DMSO replicates). Plates were then allowed to incubate at 37 °C with 5% CO2 for 24 h. After 24 h, cells were removed from the incubator, washed with 1 mL PBS, and then lysed with 500 μL M-PER lysis buffer (Thermo Fisher #78,501) with 1 cOmplete Mini, EDTA-free protease inhibitor added (Sigma-Aldrich#11,836,170,001) per 15 mL lysis buffer. Plates were allowed to nutate at 4 °C for 15 min before transferring the lysate to 1.5 mL Eppendorf tubes, which were then spun down at 20,000 rcf at 4 °C for 10 min. 400 μL of the supernatant was then transferred to fresh 1.5-mL Eppendorf tubes, which were then frozen down at - 80 °C prior to further use. Samples were removed from the - 80 °C and concentrations were determined via BCA assay (Thermo Scientific #23,227) using a pre-diluted BSA standard (Life Technologies #23,208) on a 96-well polystyrene plate (Thermo Fisher #12,565,500). Samples were diluted to 0.25 mg/mL using M-PER lysis buffer prior to PGRN quantification using the Jess. NPCs were cultured as described above, and seeded onto coated 24-well plates at 150,000 cells/well in 1 mL NPC media with growth factors. Plates were allowed to grow to ~ 100% confluency for three nights at 37 °C with 5% CO2. […] Plates were allowed to incubate overnight at 37 °C with 5% CO2 for 24 h. […]

## Cn1ccc2c(-c3cc(F)cnc3Oc3ccc(F)cc3)c[nH]c2c1=O [Compound 86B, 3-(5-fluoro-2-(4-fluorophenoxy)pyridin-3-yl)-6-methyl-1,6-dihydro-7H-pyrrolo[2,3-c]pyridin-7-one]
  increase in PGRN protein levels: unable to upregulate PGRN

## Cn1ccc2c(-c3cccnc3Oc3ccc(F)c(F)c3)c[nH]c2c1=O [Compound 81B, 3-(2-(3,4-difluorophenoxy)pyridin-3-yl)-6-methyl-1,6-dihydro-7H-pyrrolo[2,3-c]pyridin-7-one]
  increase in PGRN protein levels: significantly enhance PGRN protein levels

## Cn1ccc2c(-c3cccnc3Sc3ccc(F)cc3)c[nH]c2c1=O [Compound 84B, 3-(2-((4-fluorophenyl)thio)pyridin-3-yl)-6-methyl-1,6-dihydro-7H-pyrrolo[2,3-c]pyridin-7-one]
  increase in PGRN protein levels: significantly enhance PGRN protein levels

## Cn1cc(-c2cccnc2Oc2cc(F)cc(F)c2)c2cc[nH]c2c1=O [Compound 82A, 4-(2-(3,5-difluorophenoxy)pyridin-3-yl)-6-methyl-1,6-dihydro-7H-pyrrolo[2,3-c]pyridin-7-one]
  increase in PGRN protein levels: > twofold

## Cn1cc(-c2cccnc2Sc2ccc(F)cc2)c2cc[nH]c2c1=O [Compound 84A, 4-(2-((4-fluorophenyl)thio)pyridin-3-yl)-6-methyl-1,6-dihydro-7H-pyrrolo[2,3-c]pyridin-7-one]
  increase in PGRN protein levels: less substantial response

## Cn1ccc2c(-c3cccnc3Oc3ccc(F)cc3)c[nH]c2c1=O [Compound 18B, 3-[2-(4-fluorophenoxy)pyridin-3-yl]-6-methyl-1,6-dihydro-7H-pyrrolo[2,3-c]pyridin-7-one]
  increase in PGRN protein levels: significantly enhance PGRN protein levels

## Cn1ccc2c(-c3cccnc3Oc3cc(F)cc(F)c3)c[nH]c2c1=O [Compound 82B, 3-(2-(3,5-difluorophenoxy)pyridin-3-yl)-6-methyl-1,6-dihydro-7H-pyrrolo[2,3-c]pyridin-7-one]
  increase in PGRN protein levels: significantly enhance PGRN protein levels

## Cn1cc(-c2cccnc2Oc2ccc(F)cc2)c2cc[nH]c2c1=O [Compound 18A, 4-(2-(4-fluorophenoxy)pyridin-3-yl)-6-methyl-1H-pyrrolo[2,3-c]pyridin-7(6H)-one]
  increase in PGRN protein levels: > twofold

## Cn1ccc2c(-c3cccnc3Nc3ccc(F)cc3)c[nH]c2c1=O [Compound 85B, 3-(2-((4-fluorophenyl)amino)pyridin-3-yl)-6-methyl-1,6-dihydro-7H-pyrrolo[2,3-c]pyridin-7-one]
  increase in PGRN protein levels: unable to upregulate PGRN

## Cn1cc(-c2cc(F)cnc2Oc2ccc(F)cc2)c2cc[nH]c2c1=O [Compound 86A, 4-(5-fluoro-2-(4-fluorophenoxy)pyridin-3-yl)-6-methyl-1,6-dihydro-7H-pyrrolo[2,3-c]pyridin-7-one]
  increase in PGRN protein levels: less substantial response

## Cn1cc(-c2cccnc2Oc2ccc(F)c(F)c2)c2cc[nH]c2c1=O [Compound 81A, 4-(2-(3,4-difluorophenoxy)pyridin-3-yl)-6-methyl-1,6-dihydro-7H-pyrrolo[2,3-c]pyridin-7-one]
  increase in PGRN protein levels: > twofold

## CCS(=O)(=O)Nc1ccc(Oc2ccc(F)cc2F)c(-c2cn(C)c(=O)c3[nH]ccc23)c1 [mivebresib]
100 nM, 24 h
  enhancement of PGRN protein levels: ~ 120%
1 µM for 2 h, then 22 h of incubation post-washout
  enhancement of PGRN protein levels after washout: > twofold
1 µM for 8 h, washout, lysis 24 h from compound addition
  enhancement of PGRN protein levels after washout: more pronounced effect
1 µM mivebresib 24 h, vs matching bar without mivebresib
  Normalized PGRN (Fold-DMSO): 1.82 x
1 µM mivebresib 24 h with 300 nM dBET6
  Normalized PGRN (Fold-DMSO): 1.26 x
1 µM mivebresib 24 h with 1 µM MLN-4924 and 300 nM dBET6
  Normalized PGRN (Fold-DMSO): 1.47 x
1 µM, 8 h
  increase in PGRN: ~ 1.4 fold
1 µM, 24 h
  enhancement of PGRN protein levels: ~140%
  increase in PGRN: ~ 2.7 fold

## Cn1cc(-c2cccnc2Nc2ccc(F)cc2)c2cc[nH]c2c1=O [Compound 85A, 4-(2-((4-fluorophenyl)amino)pyridin-3-yl)-6-methyl-1,6-dihydro-7H-pyrrolo[2,3-c]pyridin-7-one]
  increase in PGRN protein levels: > twofold
